Experimental data reported in patent US20040121947A1, “Compounds which inhibit beta-secretase activity and methods of use thereof” (Oklahoma Medical Research Foundation, priority 2000, published 2004).
Read-outs that look alike come from different tables or passages of the source.

Biological target: T1, memapsin 2 (Homo sapiens, UniProt P56817)
T1 construct: pET-11 vector-derived residues 1-15 of promemapsin 2-T1 (N, cleaved yes); made in house; host or cells: E. coli
Experiment: Inhibition of memapsin 2 proteolytic activity, fluorogenic substrate FS-2
Format: biochemical
Conditions: for Vi/Vo: ratio of initial cleavage velocities of FS-2 with/without compound, enzyme and inhibitor concentrations equal (e.g., about 80 nM, 100 nM)
Protocol: Ki is the inhibition equilibrium constant which indicates the ability of compounds to inhibit the β-secretase activity of memapsin 2 and memapsin 1. […] The K1 value is independent of the substrate, and converted from Ki apparent.
The Vi/Vo values depicted in Table 1 were determined at conditions under which the enzyme and inhibitor concentrations were equal (e.g., about 80 nM, 100 nM).
The relationship of Ki (independent of substrate concentration) to Kiapp is a function of substrate concentration in the assay and the Km for cleavage of the substrate by either memapsin 1 or memapsin 2 by the relationship:
The spontaneously activated memapsin 2 was employed in assays to assess the inhibition of memapsin 2 relative to memapsin 1 by compounds of the invention and in some crystallization studies.
An aliquot of the inhibitor of known concentration in DMSO was diluted into 1.8 ml 0.1 M NaOAc, pH 4.0. DMSO and added to a final concentration of 10% (v/v), and memapsin 2 (final concentration of 80 nM), followed by a 20 minute equilibration at 37° C. Compounds were evaluated for the ability to inhibit memapsin 1 and memapsin 2 at concentrations between about 10 nM and about 10 μm of inhibitor.

[1] = memapsin 2, apparent Ki in presence of substrate FS-2
[2] = memapsin 2, independent of substrate, converted from Ki apparent
[3] = memapsin 2, apparent Ki in presence of substrate FS-2, read-out: Ki app
[4] = memapsin 2, independent of substrate, converted from Ki apparent, read-out: Ki
[5] = Ki, [I] < 100, memapsin 2, [I] < 100 (nM)

T1 sequence (P56817 41-454 limits assumed): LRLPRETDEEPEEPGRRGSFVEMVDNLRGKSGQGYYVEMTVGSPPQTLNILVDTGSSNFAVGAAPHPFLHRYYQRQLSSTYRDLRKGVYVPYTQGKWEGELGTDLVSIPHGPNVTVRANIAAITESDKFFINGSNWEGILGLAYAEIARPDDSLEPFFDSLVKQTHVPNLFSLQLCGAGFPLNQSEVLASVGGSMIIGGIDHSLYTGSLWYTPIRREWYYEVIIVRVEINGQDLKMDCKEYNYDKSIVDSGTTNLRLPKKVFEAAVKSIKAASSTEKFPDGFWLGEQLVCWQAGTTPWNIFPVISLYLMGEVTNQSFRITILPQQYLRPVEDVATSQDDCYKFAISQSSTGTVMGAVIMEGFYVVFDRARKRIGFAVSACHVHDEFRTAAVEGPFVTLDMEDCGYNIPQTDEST

Structure (SMILES) | Vi/Vo | Ki [3] [nM] | Ki [4] [nM] | other results
CSCC[C@H](NC(=O)[C@@H](NC(=O)OC(C)(C)C)C(C)C)C(=O)N[C@@H](CC(C)C)[C@@H](O)C[C@@H](C)C(=O)N[C@@H]1c2ccccc2C[C@@H]1O [MMI-053] | – | – | – | Ki app [1]: N.I.; Ki [2]: N.I.
CC(C)C[C@H](NC(=O)[C@@H]1CC(=O)NCCCCCOC(=O)N[C@@H](C(C)C)C(=O)N1)[C@@H](O)C[C@@H](C)C(=O)N[C@H](C(=O)NCc1ccccc1)C(C)C [MMI-153] | 0.68 | – | – | –
CC(C)C[C@H](NC(=O)[C@H](CCS(C)(=O)=O)NC(=O)[C@@H](NC(=O)OC(C)(C)C)C(C)C)[C@@H](O)C[C@@H](C)C(=O)N[C@H]1c2ccccc2C[C@H]1O [MMI-047] | – | – | 69100 | –
CC(C)C[C@H](NC(=O)OC(C)(C)C)[C@@H](O)C[C@@H](C)C(=O)N[C@@H](C)C(=O)NCc1ccccc1 [MMI-001] | – | – | 2.37e+06 | –
CSCC[C@H](NC(=O)[C@@H](NC(=O)OC(C)(C)C)C(C)C)C(=O)N[C@@H](CC(C)C)[C@@H](O)C[C@@H](C)C(=O)N[C@@H](C(C)C)C1CCCCO1 (stereo partly drawn) [MMI-131] | – | 92900 | 58100 | –
CC(C)C[C@H](NC(=O)[C@H](CCO)NC(=O)c1cnc2ccccc2c1)[C@@H](O)C[C@@H](C)C(=O)N[C@H](C(=O)N[C@H]1c2ccccc2C[C@H]1O)C(C)C [MMI-049] | – | – | 124000 | –
CCCCNC(=O)[C@@H](NC(=O)[C@H](C)C[C@H](O)[C@H](CC1CCCC1)NC(=O)[C@H](CCSC)NC(=O)OCn1nc(C)cc1C)C(C)C [MMI-172] | 1.05 | 447 | 279 | –
CSCC[C@H](NC(=O)[C@@H](NC(=O)OC(C)(C)C)[C@H](C)O)C(=O)N[C@@H](CC(C)C)[C@@H](O)C[C@@H](C)C(=O)N[C@@H](CC(C)C)C(=O)NC(C)C [MMI-197] | – | 94.5 | 59.1 | –
CSCC[C@H](NC(=O)OCCn1nc(C)c2c1CS(=O)(=O)C2)C(=O)N[C@@H](CC(C)C)[C@@H](O)C[C@@H](C)C(=O)N[C@@H](CC(C)C)C(=O)NC(C)C [MMI-222] | – | 2450 | 1530 | –
CSCC[C@H](NC(=O)[C@@H](NC(=O)OC(C)(C)C)C(C)C)C(=O)N[C@@H](CC(C)C)[C@@H](O)C[C@@H](C)C(=O)N[C@@H]1CCCC[C@@H]1O [MMI-057] | – | 73300 | 45800 | –
CSCC[C@H](NC(=O)[C@@H](NC(=O)OC(C)(C)C)C(C)C)C(=O)N[C@@H](CC(C)C)[C@@H](O)C[C@@H](C)C(=O)N[C@H](CO)C(C)C [MMI-042] | – | 36500 | 22800 | –
CC(C)C[C@H](NC(=O)[C@H](CCS(C)(=O)=O)NC(=O)[C@@H](NC(=O)OC(C)(C)C)C(C)C)[C@@H](O)C[C@@H](C)C(=O)N1CCC[C@H]1C(=O)NCc1ccccc1 [MMI-045] | – | – | – | Ki app [1]: N.I.; Ki [2]: N.I.
CSCC[C@H](NC(=O)OCCn1nc(C(C)(C)C)cc1C(C)(C)C)C(=O)N[C@@H](CC(C)C)[C@@H](O)C[C@@H](C)C(=O)N[C@@H](CC(C)C)C(=O)NCC(C)C [MMI-177] | 1.16 | – | – | –
CC(C)C[C@H](NC(=O)[C@H](CS(C)(=O)=O)NC(=O)OCc1cccnc1)[C@@H](O)C[C@@H](C)C(=O)N[C@H](C(=O)NCc1ccccc1)C(C)C [MMI-142] | 0.92 | – | – | –
CC(C)C[C@H](NC(=O)[C@H](CCS(C)(=O)=O)NC(=O)OCc1ccoc1)[C@@H](O)C[C@@H](C)C(=O)N[C@H](C(=O)NCc1ccccc1)C(C)C [MMI-137] | 0.85 | – | – | –
Cc1c(O)cccc1C(=O)N[C@H](C(=O)N[C@@H](CCS(C)(=O)=O)C(=O)N[C@@H](CC(C)C)[C@@H](O)C[C@@H](C)C(=O)N[C@@H](CC(C)C)C(=O)NCc1ccccc1)C(C)C [MMI-122] | 1.17 | – | – | –
CCC[C@H](C[C@H](O)[C@H](CC(C)C)NC(=O)[C@H](CSC)NC(=O)O[C@@H]1C[C@@H]2CCO[C@@H]2C1)C(=O)N[C@H](C(=O)NCc1ccccc1)C(C)C [MMI-027] | – | 11500 | 7220 | –
CC(C)C[C@H](NC(=O)[C@@H]1CC(=O)NC/C=C\CCOC(=O)N[C@@H](C(C)C)C(=O)N1)[C@@H](O)C[C@@H](C)C(=O)N[C@H](C(=O)NCc1ccccc1)C(C)C [MMI-152] | 0.47 | 20.6 | 12.8 | –
CSCC[C@H](NC(=O)C(Cn1nc(C)cc1C)C(C)C)C(=O)N[C@@H](CC(C)C)[C@@H](O)C[C@@H](C)C(=O)N[C@H](C(=O)NCc1ccco1)C(C)C (stereo partly drawn) [MMI-225] | – | 41 | 25.7 | –
CSCC[C@H](NC(=O)OCCn1nc(C)c2c1CCC2)C(=O)N[C@@H](CC(C)C)[C@@H](O)C[C@@H](C)C(=O)N[C@@H](CC(C)C)C(=O)NC(C)C [MMI-220] | – | 4490 | 2810 | –
COc1ccc(C(=O)N[C@@H](CCSC)C(=O)N[C@@H](CC(C)C)[C@@H](O)C[C@@H](C)C(=O)N[C@@H](CC(C)C)C(=O)NC(C)C)cc1 [MMI-208] | – | 1950 | 1220 | Ki [5]: 407 nM
CC(C)C[C@H](NC(=O)[C@H](CS(C)(=O)=O)NC(=O)OCc1ccncc1)[C@@H](O)C[C@@H](C)C(=O)N[C@H](C(=O)NCc1ccccc1)C(C)C [MMI-144] | 1.03 | – | – | –
CSCC[C@H](NC(=O)OCc1ncc(C)n1C)C(=O)N[C@@H](CC(C)C)[C@@H](O)C[C@@H](C)C(=O)N[C@H](C(=O)NCC(C)C)C(C)C [MMI-188] | – | 230 | 144 | –
COc1cccc(C(=O)N[C@@H](CSC)C(=O)N[C@@H](CC(C)C)[C@@H](O)C[C@@H](C)C(=O)N[C@@H](CC(C)C)C(=O)NC(C)C)c1OC [MMI-199] | – | 963 | 602 | Ki [5]: 190 nM
CSCC[C@H](NC(=O)[C@H](C(C)C)N1CCCNC1=O)C(=O)N[C@@H](CC(C)C)[C@@H](O)C[C@@H](C)C(=O)N[C@@H](CC(C)C)C(=O)NCC(C)C [MMI-198] | – | 756 | 473 | –
CSCC[C@H](NC(=O)[C@@H](NC(=O)OC(C)(C)C)C(C)C)C(=O)N[C@@H](CC(C)C)[C@@H](O)C[C@@H](C)C(=O)N[C@@H]1CCCC[C@@H]1O [MMI-059] | – | 66300 | 41400 | –

Now from value to molecule, other results behind:

Vi/Vo | Ki [3] [nM] | Ki [4] [nM] | Structure (SMILES) | other results
– | 1.9 | 1.18 | CC(C)C[C@H](NC(=O)OC(C)(C)C)C(=O)N[C@@H](CCS(C)(=O)=O)C(=O)N[C@@H](CC(C)C)[C@@H](O)C[C@@H](C)C(=O)N[C@H](C(=O)NCc1ccccc1)C(C)C [MMI-071] | –
– | 49900 | 31700 | CC(C)C[C@H](NC(=O)[C@H](CCS(C)(=O)=O)NC(=O)OC(C)(C)C)[C@@H](O)C[C@@H](C)C(=O)N[C@@H](C)C(=O)NCc1ccccc1 [MMI-007] | –
0.29 | 12.8 | 7.98 | CSCC[C@H](C[C@H](O)[C@H](CC(C)C)NC(=O)[C@H](CCSC)NC(=O)[C@H](CC(C)C)NC(=O)OC(C)(C)C)C(=O)N[C@H](C(=O)NCc1ccccc1)C(C)C [MMI-164] | –
– | 58 | 36.2 | CSCC[C@H](C[C@H](O)[C@H](Cc1ccccc1)NC(=O)[C@H](CCSC)NC(=O)[C@@H](NC(=O)OC(C)(C)C)C(C)C)C(=O)N[C@H](C(=O)NCc1ccccc1)C(C)C [MMI-201] | –
1.1 | – | – | CSCC[C@H](NC(=O)[C@@H](NC(=O)OC(C)(C)C)C(C)C)C(=O)N[C@@H](CC(C)C)[C@@H](O)C[C@H](C)NC(=O)[C@H](NC(=O)OCc1ccccc1)C(C)C [MMI-169] | –
– | 1340 | 838 | CCC[C@H](C[C@H](O)[C@H](CC(C)C)NC(=O)[C@H](CSC)NC(=O)c1cccc(O)c1C)C(=O)N[C@H](C(=O)NCc1ccccc1)C(C)C [MMI-032] | –
– | 688 | 430 | CSCC[C@H](NC(=O)[C@@H](NC(=O)OC(C)(C)C)C(C)C)C(=O)N[C@@H](CC(C)C)[C@@H](O)C[C@H](C(=O)N[C@H](C(=O)NCc1ccccc1)C(C)C)C(C)C [MMI-202] | –
0.08 | 2.06 | 1.28 | CSCC[C@H](NC(=O)[C@@H](NC(=O)OC(C)(C)C)C(C)C)C(=O)N[C@@H](CO)[C@@H](O)C[C@@H](C)C(=O)N[C@H](C(=O)NCc1ccccc1)C(C)C [MMI-155] | –
0.56 | – | – | C=CCCOC(=O)N[C@H](C(=O)N[C@@H](CC(=O)NCC=C)C(=O)N[C@@H](CC(C)C)[C@@H](O)C[C@@H](C)C(=O)N[C@H](C(=O)NCc1ccccc1)C(C)C)C(C)C [MMI-151] | –
– | 112 | 70.1 | C=CC[C@H](C[C@H](O)[C@H](CC(C)C)NC(=O)[C@H](CC(N)=O)NC(=O)[C@@H](NC(=O)OC(C)(C)C)C(C)C)C(=O)N[C@H](C(=O)NCc1ccccc1)C(C)C [MMI-021] | –
0.4 | 106 | 66.2 | CSCC[C@H](NC(=O)[C@@H](NC(=O)OC(C)(C)C)C(C)C)C(=O)N[C@@H](CC(C)C)[C@@H](O)C[C@@H](CC(N)=O)C(=O)N[C@H](C(=O)NCc1ccccc1)C(C)C [MMI-038] | –
0.07 | 0.8 | 0.5 | CCCCNC(=O)[C@@H](NC(=O)[C@H](C)C[C@H](O)[C@H](CC(C)C)NC(=O)[C@H](CCSC)NC(=O)[C@H](CC(C)C)NC(=O)OC(C)(C)C)C(C)C [MMI-159] | –
– | 11.9 | 7.45 | CSCC[C@H](NC(=O)[C@H](CC(C)C)NS(C)(=O)=O)C(=O)N[C@@H](CC(C)C)[C@@H](O)C[C@@H](C)C(=O)N[C@H](C(=O)NCc1ccccc1)C(C)C [MMI-093] | –
